Where a name gives a salt, the structure may show the parent alone.
Legend:
5-HT1E = 5-HT1E (Homo sapiens, UniProt P28566); assay: 5-HT1E receptor inhibition (Table 1); assay type: binding
[1] = target: T1, human gene recombinant 5-HT7 receptor expressed in CHO cells (Homo sapiens, UniProt P34969); assay: Binding affinity for the 5-HT7 serotonin receptor ([3H]LSD radioligand)
T1 construct: expressed in transfected cells; host or cells: CHO cells (membrane preparation)
Experimental: In this example, the human gene recombinant 5-HT7 receptor expressed in CHO cells was used. 1 nM [^3H]LSD, 5-HT7 receptor membrane (15 μg/well), a test drug, 10 mM MgCl2, 50 mM Tris-HCl buffer (pH 7.4) containing 0.1 mM EDTA, etc. were added to a vessel until the final volume reached 0.25 ml. The test drug was used at various concentrations. The mixture was cultured at 25° C. for 90 min. The culture was rapidly filtered through a Whatman GF/C glass fiber filter, which had been previously wetted with 0.3% polyethyleneimine using a Brandel harvester, to quench the reaction. The reaction mixture was washed with cold 50 mM Tris-HCl buffer. The filter was covered with MeltiLex, sealed in a sample bag, and dried in an oven. Counting was performed using MicroBeta (Wallac) and nonspecific binding was measured in the presence of […]. The K value of the test drug was obtained from nonlinear regression analysis (GraphPad Prism Program, San Diego, USA) of isotherms obtained by repeatedly performing the experiment on the drug at 10-11 stage concentrations in two test tubes (each twice).
The % inhibition values of the inventive compounds having different Y structures at a concentration of 10 μM against the 5-HT7 serotonin receptor were measured. Further, the binding affinity (Ki) values of the inventive compounds having different Y structures at a concentration of 10 μM for the 5-HT7 serotonin receptor were measured.

5-HT2C = target: T2, 5-HT2C (Homo sapiens, UniProt P28335); assay: 5-HT2C receptor inhibition/binding (Tables 1-3)
T2 sequence (P28335 33-458): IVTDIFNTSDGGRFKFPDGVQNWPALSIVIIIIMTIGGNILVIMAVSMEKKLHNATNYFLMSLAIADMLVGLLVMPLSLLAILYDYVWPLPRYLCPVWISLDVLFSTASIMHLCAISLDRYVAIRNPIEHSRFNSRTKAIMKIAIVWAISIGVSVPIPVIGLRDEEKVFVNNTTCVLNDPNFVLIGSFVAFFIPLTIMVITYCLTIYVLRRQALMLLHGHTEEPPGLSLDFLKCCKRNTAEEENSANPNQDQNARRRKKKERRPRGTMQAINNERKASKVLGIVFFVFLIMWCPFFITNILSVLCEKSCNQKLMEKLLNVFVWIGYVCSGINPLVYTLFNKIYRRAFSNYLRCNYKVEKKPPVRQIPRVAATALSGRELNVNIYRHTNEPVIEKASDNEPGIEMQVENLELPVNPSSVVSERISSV

5-HT1A = target: T3, 5-HT1A (Homo sapiens, UniProt P08908); assay: 5-HT1A receptor inhibition (Table 3); assay type: binding
T3 sequence (P08908 1-422): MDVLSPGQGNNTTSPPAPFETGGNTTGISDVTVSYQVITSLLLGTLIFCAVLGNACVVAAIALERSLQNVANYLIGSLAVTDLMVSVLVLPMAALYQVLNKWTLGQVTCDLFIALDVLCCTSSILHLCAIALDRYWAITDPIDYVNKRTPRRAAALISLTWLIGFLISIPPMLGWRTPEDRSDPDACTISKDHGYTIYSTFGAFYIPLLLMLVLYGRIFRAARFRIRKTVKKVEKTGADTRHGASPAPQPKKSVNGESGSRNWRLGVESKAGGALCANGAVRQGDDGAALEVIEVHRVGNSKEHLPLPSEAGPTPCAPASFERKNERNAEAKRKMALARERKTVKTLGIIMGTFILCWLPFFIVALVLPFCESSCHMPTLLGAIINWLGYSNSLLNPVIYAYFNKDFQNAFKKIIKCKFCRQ

5-HT6 = 5-HT6 (Homo sapiens, UniProt P50406); assay: 5-HT6 receptor inhibition/binding (Tables 2-3); conditions: 10 μM
5-HT6, sequence (P50406 whole entry, species assumed): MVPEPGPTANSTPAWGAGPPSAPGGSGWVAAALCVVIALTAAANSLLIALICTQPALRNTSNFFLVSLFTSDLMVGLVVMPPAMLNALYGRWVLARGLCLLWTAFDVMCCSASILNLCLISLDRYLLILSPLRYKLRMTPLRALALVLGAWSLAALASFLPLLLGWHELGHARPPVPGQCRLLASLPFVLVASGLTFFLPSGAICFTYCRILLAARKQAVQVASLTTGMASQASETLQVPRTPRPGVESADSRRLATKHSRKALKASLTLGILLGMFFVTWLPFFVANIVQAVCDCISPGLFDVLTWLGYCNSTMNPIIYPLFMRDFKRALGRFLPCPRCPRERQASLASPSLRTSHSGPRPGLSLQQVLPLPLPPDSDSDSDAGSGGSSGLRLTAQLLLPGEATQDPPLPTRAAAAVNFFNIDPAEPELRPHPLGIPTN

5-HT1E, sequence (P28566 whole entry, species assumed): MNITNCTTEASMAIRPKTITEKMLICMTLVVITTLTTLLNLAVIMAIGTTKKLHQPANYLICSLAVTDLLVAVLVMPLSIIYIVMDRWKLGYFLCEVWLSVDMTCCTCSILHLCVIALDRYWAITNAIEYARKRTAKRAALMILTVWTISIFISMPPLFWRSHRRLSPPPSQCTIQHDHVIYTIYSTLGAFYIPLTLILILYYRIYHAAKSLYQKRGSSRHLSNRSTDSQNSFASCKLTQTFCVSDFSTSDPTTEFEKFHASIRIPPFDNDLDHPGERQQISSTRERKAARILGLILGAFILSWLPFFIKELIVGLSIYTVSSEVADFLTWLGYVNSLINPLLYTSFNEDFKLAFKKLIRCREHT
T1 sequence (P34969 whole entry): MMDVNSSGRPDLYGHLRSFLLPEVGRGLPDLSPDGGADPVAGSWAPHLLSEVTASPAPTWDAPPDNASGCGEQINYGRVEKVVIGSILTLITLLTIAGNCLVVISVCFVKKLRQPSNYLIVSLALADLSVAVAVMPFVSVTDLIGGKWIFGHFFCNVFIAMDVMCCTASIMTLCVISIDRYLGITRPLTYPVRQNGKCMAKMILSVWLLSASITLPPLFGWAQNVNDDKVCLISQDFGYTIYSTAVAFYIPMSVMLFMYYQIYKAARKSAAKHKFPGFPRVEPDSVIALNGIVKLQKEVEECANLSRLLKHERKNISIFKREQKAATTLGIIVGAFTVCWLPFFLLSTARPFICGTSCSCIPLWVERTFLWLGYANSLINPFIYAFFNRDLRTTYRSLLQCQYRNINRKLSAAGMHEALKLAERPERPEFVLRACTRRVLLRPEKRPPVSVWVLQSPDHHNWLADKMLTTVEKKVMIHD

SMILES | inhibition at 10 µM (5-HT1E) [%] | Ki [1] [nM] | inhibition at 10 µM [1] [%] | Ki (5-HT2C) [nM] | inhibition at 10 µM (5-HT2C) [%] | inhibition at 10 µM (5-HT1A) [%] | inhibition at 10 µM (5-HT6) [%]
CCCCN(C)CCCCCC(=O)n1c2ccccc2c2ccccc21 [Example 2.1, 6-(Butyl(methyl)amino)-1-(9H-carbazol-9-yl)hexan-1-one hydrochloride] | 51.3 | 680 | 82.8 | 207 | 87.4 |  | 
CN1CCN(CCCCCC(=O)n2c3ccccc3c3ccccc32)CC1 [Example 2.12, 1-(9H-carbazol-9-yl)-6-(4-methylpiperazin-1-yl)hexan-1-one hydrochloride] |  | 1910 | 50 |  | 82.5 | 5.5 | 77.6
O=C(CCCCCN1CCN(Cc2ccccc2)CC1)n1c2ccccc2c2ccccc21 [Example 2.13, 6-(4-Benzylpiperazin-1-yl)-1-(9H-carbazol-9-yl)hexan-1-one hydrochloride] |  | 127 | 94.8 |  | 72.3 | 76.8 | 57.9
COc1ccccc1N1CCN(CCCCCC(=O)n2c3ccccc3c3ccccc32)CC1 [Example 2.16, 1-(9H-carbazol-9-yl)-6-(4-(2-methoxyphenyl)piperazin-1-yl)hexan-1-one] |  | 74 | 102 |  | 55.8 | 108 | 30.7
CCCCN(C)CCCCC(=O)n1c2ccccc2c2ccccc21 [Example 2.17, 5-(Butyl(methyl)amino)-1-(9H-carbazol-9-yl)pentan-1-one hydrochloride] | 73.9 | 1280 | 50 |  |  |  | 
CC(=O)N1CCN(CCCCC(=O)n2c3ccccc3c3ccccc32)CC1 [Example 2.27, 5-(4-Acetylpiperazin-1-yl)-1-(9H-carbazol-9-yl)pentan-1-one hydrochloride] |  | 1070 | 64.6 |  | 6.6 | 25.4 | 13.8
O=C(CCCCN1CCN(Cc2ccccc2)CC1)n1c2ccccc2c2ccccc21 [Example 2.29, 5-(4-Benzylpiperazinyl)-1-(9H-carbazol-9-yl)pentan-1-one hydrochloride] |  | 282 | 92 |  | 38 | 66.5 | 57.4
COc1ccccc1N1CCN(CCCC(=O)n2c3ccccc3c3ccccc32)CC1 [Example 2.34, 1-(9H-carbazol-9-yl)-4-(4-(2-methoxyphenyl)piperazin-1-yl)butan-1-one] |  | 33 | 97.7 |  | 74.2 | 104 | 51.5
CN(CCCCCCn1c2ccccc2c2ccccc21)Cc1ccccc1 [Example 2.36, N-Benzyl-6-(9H-carbazol-9-yl)-N-methylhexane-1-amine] | -13.2 | 1980 | 64 |  |  |  | 
c1ccc2c(c1)c1ccccc1n2CCCCCCN1CCCC1 [Example 2.37, 9-(6-(Pyrrolidin-1-yl)hexyl)-9H-carbazole] | 21.1 | 1550 | 66.9 |  |  |  | 
CC1CCN(CCCCCCn2c3ccccc3c3ccccc32)CC1 [Example 2.38, 9-(6-(4-Methylpiperidin-1-yl)hexyl)-9H-carbazole] | -9.4 | 597 | 82.9 |  |  |  | 
CC1CCCN(CCCCCCn2c3ccccc3c3ccccc32)C1 (centres unmarked) [Example 2.39, 9-(6-(3-Methylpiperidin-1-yl)hexyl)-9H-carbazole] | 1.5 | 909 | 75.6 |  |  |  | 
CC1CC(C)CN(CCCCCCn2c3ccccc3c3ccccc32)C1 (centres unmarked) [Example 2.40, 9-(6-(3,5-Dimethylpiperidin-1-yl)hexyl)-9H-carbazole] | -7.3 | 1600 | 57.7 |  |  |  | 
c1ccc2c(c1)c1ccccc1n2CCCCCCN1CCCCCC1 [Example 2.41, 9-(6-(Azepan-1-yl)hexyl)-9H-carbazole] | 2.7 | 952 | 71.3 |  |  |  | 

Reference: patent US9663464B2, “Carbazole derivatives acting on 5-HT7 receptor” (KOREA INSTITUTE OF SCIENCE AND TECHNOLOGY, priority 2015, dated 2017)
